Test [1] concerns the target T1, E. huxleyi dihydroorotate dehydrogenase (EhDHODH).
T1 construct: ΔN20EhDHODH (first 20 residues truncated, start at residue 21; N-terminal eight-residue histidine tag)
Nature of the test: DCIP colorimetric DHODH activity assay, Morrison tight-binding fit; IC50 […]. Type of test: biochemical, Emiliania huxleyi.

Test [2] concerns the target E. huxleyi dihydroorotate dehydrogenase (EhDHODH).

The structures appear in SMILES notation.

The values below come from article PMC10587436, “A bacterial quorum sensing signal is a potent inhibitor of de novo pyrimidine biosynthesis in the globally abundant Emiliania huxleyi” (Frontiers in Microbiology, 2023).

With `CCCCCCCc1cc(=O)c2ccccc2[nH]1` [HHQ], the affinity in test [1] corresponds to a Ki of 0.0023 ± 0.0007 µM.

In turn, `Cc1c(-c2ccc(-c3ccccc3F)cc2)nc2ccc(F)cc2c1C(=O)O` [brequinar] returned an IC50 in test [2] of 43 ± 11 µM.

A word on the Ki: it is the equilibrium dissociation constant of an inhibitor or competing ligand from its target. As a reminder, the IC50 is the concentration at which inhibition is half-maximal. Low readings indicate inhibition by little substance, high ones a need for much substance.
